# Data taken from patent US20080269317A1, “Compounds for Covalent Binding to MD-2 and Effect on the Immune Response” (priority 2005, published 2008).
# Legend:
# MD-2 [1] = target: T1, MD-2 (Homo sapiens, UniProt Q9Y6Y9); assay: Covalent binding to MD-2: fluorescence after GdnHCl denaturation and acetone precipitation, with or without iodoacetamide blocking
# T1 construct: made in house; host or cells: Escherichia coli
# T1 sequence (Q9Y6Y9 19-160): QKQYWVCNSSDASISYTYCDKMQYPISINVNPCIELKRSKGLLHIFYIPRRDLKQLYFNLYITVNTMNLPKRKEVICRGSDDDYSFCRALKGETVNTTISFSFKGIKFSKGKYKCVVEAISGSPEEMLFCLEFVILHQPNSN
# Method: In the second example of the invention we show, that binding of the compound to MD-2 is irreversible, therefore after binding to MD-2, compound remains permanently bound to the protein and therefore prevent binding of LPS or other ligands to MD-2.
# The compounds with features mentioned above covalently bind to MD-2. The binding experiment was performed by adding to the concentration of MD-2 two times concentration excess of N-(1-pyrene) maleimide and incubated one hour at room temperature in the dark. The compound, which nonspecifically (noncovalently) bound to MD-2 was released from the protein by denaturation of the protein in 6 M guanidinium hydrochloride (GdnHCl). To the dissolved denatured protein we added five volumes of chilled (−20° C.) acetone and incubated for additional 60 min at −20° C. Then we centrifuged for 10 min at 13 000 rpm. […] The precipitate was dissolved in […] of 6 M GdnHCl and fluorescence emission spectrum was measured with excitation at 338 nm (FIG. 2). […] Binding of iodoacetamide inhibited binding of a compound to free cysteine residue on MD-2, which can be detected by lower fluorescence intensity of the compound.
# We compared the fluorescence of MD-2, incubated with N-(1-pyrene) maleimide and to MD-2, with said compound, where we have previously added iodoacetamide for blocking free cysteine residues.
# MonoMac6 cells [2] = assay: Inhibition of TNF-alpha synthesis (ELISA) in MonoMac6 cells stimulated with LPS; format: cell-based, human; conditions: different concentrations of IAANS, 1 hour, then 20 ng/ml LPS; supernatant after 20 hours
# Text: The effect of certain compound on the cell activation by LPS can also be detected by determination of the amount of cytokines, which are released by the cell activation. Addition of LPS to macrophage cells (or other cells, which normally express MD-2 and TLR4) causes the secretion of inflammatory cytokines such as TNF-alpha, IL-1, IL-8 . . . […] The amount of cytokines released into the media can be determined by the ELISA test. For the experiment we used monocytic cells MonoMac6. To 96-well plate we seeded 1×10^5 cells per well in media for MonoMac6 cells (RPMI with 10% FBS, nonessential aminoacids and OPI (both from Sigma)). 50 ng/ml of phorbol 12-myristate […] (Sigma) needed for differentiation into macrophages was added to cells. IAANS was added at different concentrations and incubated 1 hour, followed by the addition of 20 ng/ml LPS. 20 hours after the stimulation we took the supernatant, centrifuged it for 3 min on 13 000 rpm and performed the ELISA test for TNF-alpha.
# To MonoMac6 cells, which express MD-2 and TLR4, we added different concentrations of IAANS and LPS and determined the concentration of TNF-alpha in media using the ELISA test.
# MonoMac6 cells [3] = assay: Activation of MonoMac6 cells without LPS, monitored through secreted TNF-alpha (ELISA); format: cell-based, human; conditions: different concentrations of IAANS, no LPS; supernatant after 20 hours
# Text: The activation of the host innate immune system can have an important role for the treatment of diseases such as microbial infections, cancer and other diseases, where the participation of the innate immunity system is important. It is important that the compound, which activates the innate immune system has no other effects. If the compound activates the cells of the innate immunity, the same cytokines are secreted as by the activation with LPS, so the same assay can be used. For the assay we have used human monocytic cells MonoMac6. Into the 96-well plate we seeded 1×10^5 cells per well in the media for MonoMac6 cells. We added 50 ng/ml of phorbol 12-myristate […] (Sigma), which is needed for differentiation of cells into macrophages. Then we added different concentrations of IAANS and incubated. 20 hours after the stimulation we took the cell supernatants, centrifuged for 3 min at 13 000 rpm and performed ELISA test for TNF-alpha.
# To MonoMac6 cells we added different concentrations of IAANS. […] Cells secreted TNF-alpha, which stimulates the innate immune response, which is important for the acquired immunity at vaccination or treatment of disease such as cancer, where the activation of host immune response is desirable. […]
# MD-2 [4] = target: T1, MD-2; assay: Binding to MD-2 monitored through the increase of the fluorescence (spectrofluorimeter); conditions: 100 nM MD-2 added to 200 nM compound in milliQ water, 25° C., time dependent
# Text: In the first example of the invention we used recombinant MD-2 produced in bacteria Escherichia coli to test the binding of the compounds, which contain a hydrophobic group and a group, which binds to the cysteine residue. This protein has biological activity as endogenous MD-2 and added protein enables response to LPS to cells lacking endogenous MD-2. We tested binding of compounds 2-(4′-(iodoacetamido)anilino)naphthalene-6-sulfonic acid (IAANS) and N-(1-pyrene)maleimide, which in addition to the above mentioned properties also have the additional feature of fluorescence, which makes them useful to show the principle of the invention. […] Change of the environment, which is a result of binding of the compound into the hydrophobic pocket, causes an increase of the fluorescence intensity of compounds, which is detected by measuring the emission fluorescence spectra using the spectrofluorimeter. […]
# IAANS (Molecular Probes, USA) is an example of a compound with an alkylhalide group, which is reactive with a thiol group, an anilinonaphthalene group as a hydrophobic group and a sulfonic group as an anionic group. […] IAANS concentration was determined by measuring the absorbance at 326 nm in methanol (extinction coefficient at 326 nm in methanol is 27 000 cm^−1M^−1). […] Binding to MD-2 increases the fluorescence intensities of both compounds. […]
SMILES,effect of previous incubation with iodoacetamide on binding of N-(1-pyrene) maleimide to MD-2 (MD-2 [1]; five molar excess of iodoacetamide added beforehand to block free cysteine residues),inhibition of LPS dependent synthesis of TNF-alpha (MonoMac6 cells [2]),activation of MonoMac6 cells (secreted TNF-alpha) (MonoMac6 cells [3]),change of the fluorescence intensity at emission maximum after addition of MD-2 (MD-2 [4]),"covalent (irreversible) binding to MD-2: emission spectrum preserved in 6 M GdnHCl (MD-2 [1]; two times excess of compound, one hour at room temperature, denaturation in 6 M GdnHCl, acetone precipitation, excitation 338 nm)"
"NC(=O)CI [iodoacetamide, reference compound]",inhibited binding of N-(1-pyrene) maleimide to MD-2,–,–,–,–
"O=C(CI)Nc1ccc(Nc2ccc3cc(S(=O)(=O)O)ccc3c2)cc1 [IAANS, 2-(4′-(iodoacetamido)anilino)naphthalene-6-sulfonic acid]",–,inhibited LPS dependent synthesis of TNF-alpha in a concentration-dependent manner,activated the cells in the concentration dependent manner,increase of the IAANS fluorescence after binding to MD-2,–
"O=C1C=CC(=O)N1c1ccc2ccc3cccc4ccc1c2c34 [N-(1-pyrene) maleimide, N-(1-pyrene)maleimide]",–,–,–,increase of the N-(1-pyrene) maleimide fluorescence after binding to MD-2,irreversibly bound to MD-2
